Literature values as cited in paper PMC8513935.

What was measured:
[1] = log P octanol/water from commercial databases, averaged (the ESI); conditions: Octanol (wet), 25 C
[2] = derived by the authors as gas->solvent minus gas->water (a hypothetical dry solvent; the ESI), not a two-phase measurement
[3] = experimental, compiled by the authors from the literature (the ESI cites the sources)

CC(C)=O
log K of transfer, water to solvent [1]: -0.24 log10 K | log K of transfer, water to solvent ([2]; 1,2-Dichloroethane, 25 C): 0.3 log10 K | log K of transfer, water to solvent ([2]; Acetone, 25 C): 0.21 log10 K | log K of transfer, water to solvent ([2]; Acetonitrile, 25 C): 0.31 log10 K | log K of transfer, water to solvent ([2]; Benzene, 25 C): -0.05 log10 K | log K of transfer, water to solvent ([2]; Butan-1-ol, 25 C): -0.26 log10 K | log K of transfer, water to solvent ([2]; Butanone, 25 C): 0.09 log10 K | log K of transfer, water to solvent ([2]; CCl4, 25 C): -0.45 log10 K | log K of transfer, water to solvent ([2]; Chlorobenzene, 25 C): -0.17 log10 K | log K of transfer, water to solvent ([2]; Chloroform, 25 C): 0.46 log10 K | log K of transfer, water to solvent ([2]; Cyclohexane, 25 C): -0.948 log10 K | log K of transfer, water to solvent ([2]; Cyclohexanone, 25 C): -0.041 log10 K | log K of transfer, water to solvent ([2]; Di-n-butyl ether, 25 C): -0.58 log10 K | log K of transfer, water to solvent ([2]; Dichloromethane, 25 C): 0.56 log10 K | log K of transfer, water to solvent ([2]; Diethyl Ether, 25 C): -0.26 log10 K | log K of transfer, water to solvent ([2]; Ethanol, 25 C): -0.06 log10 K | log K of transfer, water to solvent ([2]; Hexadecane, 25 C): -1.13 log10 K | log K of transfer, water to solvent ([2]; Hexane, 25 C): -0.867 log10 K | log K of transfer, water to solvent ([2]; Methanol, 25 C): 0.06 log10 K | log K of transfer, water to solvent ([2]; Octan-1-ol(dry), 25 C): -0.52 log10 K | log K of transfer, water to solvent ([2]; Pentan-1-ol, 25 C): -0.34 log10 K | log K of transfer, water to solvent ([2]; Propan-2-ol, 25 C): -0.37 log10 K | log K of transfer, water to solvent ([2]; Tetrahydrofuran, 25 C): 0.02 log10 K | log K of transfer, water to solvent ([2]; Toluene, 25 C): -0.2 log10 K | log K of transfer, gas to solvent ([3]; 1,2-Dichloroethane, 25 C): 3.13 log10 K | log K of transfer, gas to solvent ([3]; Acetonitrile, 25 C): 3.14 log10 K | log K of transfer, gas to solvent ([3]; Benzene, 25 C): 2.78 log10 K | log K of transfer, gas to solvent ([3]; Butan-1-ol, 25 C): 2.57 log10 K | log K of transfer, gas to solvent ([3]; Butanone, 25 C): 2.92 log10 K | log K of transfer, gas to solvent ([3]; CCl4, 25 C): 2.38 log10 K | log K of transfer, gas to solvent ([3]; Chlorobenzene, 25 C): 2.66 log10 K | log K of transfer, gas to solvent ([3]; Chloroform, 25 C): 3.29 log10 K | log K of transfer, gas to solvent ([3]; Cyclohexane, 25 C): 1.88 log10 K | log K of transfer, gas to solvent ([3]; Cyclohexanone, 25 C): 2.79 log10 K | log K of transfer, gas to solvent ([3]; Di-n-butyl ether, 25 C): 2.25 log10 K | log K of transfer, gas to solvent ([3]; Dichloromethane, 25 C): 3.39 log10 K | log K of transfer, gas to solvent ([3]; Diethyl Ether, 25 C): 2.57 log10 K | log K of transfer, gas to solvent ([3]; Ethanol, 25 C): 2.77 log10 K | log K of transfer, gas to solvent ([3]; Hexadecane, 25 C): 1.7 log10 K | log K of transfer, gas to solvent ([3]; Hexane, 25 C): 1.96 log10 K | log K of transfer, gas to solvent ([3]; Methanol, 25 C): 2.89 log10 K | log K of transfer, gas to solvent ([3]; Octan-1-ol, 25 C): 2.31 log10 K | log K of transfer, gas to solvent ([3]; Pentan-1-ol, 25 C): 2.49 log10 K | log K of transfer, gas to solvent ([3]; Propan-2-ol, 25 C): 2.46 log10 K | log K of transfer, gas to solvent ([3]; Propanone, 25 C): 3.04 log10 K | log K of transfer, gas to solvent ([3]; Tetrahydrofuran, 25 C): 2.85 log10 K | log K of transfer, gas to solvent ([3]; Toluene, 25 C): 2.63 log10 K | log K of transfer, gas to solvent ([3]; Water, 25 C): 2.83 log10 K

CCCCCCCCCC
log K of transfer, water to solvent [1]: 5.88 log10 K | log K of transfer, water to solvent ([2]; Butanone, 25 C): 6.74 log10 K | log K of transfer, water to solvent ([2]; Ethanol, 25 C): 6.24 log10 K | log K of transfer, water to solvent ([2]; Hexadecane, 25 C): 7 log10 K | log K of transfer, water to solvent ([2]; Hexane, 25 C): 7.34 log10 K | log K of transfer, gas to solvent ([3]; Butanone, 25 C): 4.42 log10 K | log K of transfer, gas to solvent ([3]; Ethanol, 25 C): 3.92 log10 K | log K of transfer, gas to solvent ([3]; Hexadecane, 25 C): 4.68 log10 K | log K of transfer, gas to solvent ([3]; Hexane, 25 C): 5.02 log10 K | log K of transfer, gas to solvent ([3]; Water, 25 C): -2.32 log10 K

CCCOCCC
log K of transfer, water to solvent [1]: 2.03 log10 K | log K of transfer, water to solvent ([2]; 2-Methylpropan-1-ol, 25 C): 2.16 log10 K | log K of transfer, water to solvent ([2]; 2-Methylpropan-2-ol, 25 C): 2.13 log10 K | log K of transfer, water to solvent ([2]; Butan-1-ol, 25 C): 2.13 log10 K | log K of transfer, water to solvent ([2]; Butan-2-ol, 25 C): 2.14 log10 K | log K of transfer, water to solvent ([2]; Butanone, 25 C): 2.3 log10 K | log K of transfer, water to solvent ([2]; CCl4, 25 C): 2.64 log10 K | log K of transfer, water to solvent ([2]; Dichloromethane, 25 C): 2.78 log10 K | log K of transfer, water to solvent ([2]; Hexadecane, 25 C): 2.05 log10 K | log K of transfer, water to solvent ([2]; Hexan-1-ol, 25 C): 2.12 log10 K | log K of transfer, water to solvent ([2]; Methanol, 25 C): 1.99 log10 K | log K of transfer, water to solvent ([2]; Octan-1-ol(dry), 25 C): 2.07 log10 K | log K of transfer, water to solvent ([2]; Perfluoroalkane, 25 C): 1.18 log10 K | log K of transfer, water to solvent ([2]; Propan-2-ol, 25 C): 2.05 log10 K | log K of transfer, gas to solvent ([3]; 2-Methylpropan-1-ol, 25 C): 3.06 log10 K | log K of transfer, gas to solvent ([3]; 2-Methylpropan-2-ol, 25 C): 3.03 log10 K | log K of transfer, gas to solvent ([3]; Butan-1-ol, 25 C): 3.03 log10 K | log K of transfer, gas to solvent ([3]; Butan-2-ol, 25 C): 3.04 log10 K | log K of transfer, gas to solvent ([3]; Butanone, 25 C): 3.2 log10 K | log K of transfer, gas to solvent ([3]; CCl4, 25 C): 3.54 log10 K | log K of transfer, gas to solvent ([3]; Dichloromethane, 25 C): 3.68 log10 K | log K of transfer, gas to solvent ([3]; Hexadecane, 25 C): 2.95 log10 K | log K of transfer, gas to solvent ([3]; Hexan-1-ol, 25 C): 3.02 log10 K | log K of transfer, gas to solvent ([3]; Methanol, 25 C): 2.89 log10 K | log K of transfer, gas to solvent ([3]; Octan-1-ol, 25 C): 2.97 log10 K | log K of transfer, gas to solvent ([3]; Perfluoroalkane, 25 C): 2.08 log10 K | log K of transfer, gas to solvent ([3]; Propan-2-ol, 25 C): 2.95 log10 K | log K of transfer, gas to solvent ([3]; Water, 25 C): 0.9 log10 K
